According to article PMC5522996, “Big conductance calcium‐activated potassium channel openers control spasticity without sedation” (British Journal of Pharmacology, 2017):

Tests used:
[1] = test system: spastic ABH mice with EAE; experiment: Spasticity: resistance to hindlimb flexion against a strain gauge
ABH mice [2] = experiment: Open‐field activity monitoring (hypomotility); assay type: in vivo, mouse
Method: Motor activity was assessed using 27.9 × 27.9 cm open field activity monitor chambers and computer software (Med Associates Inc, St. Albans, VT, USA.). This was typically performed in a darkened room. Recordings were initiated once the mouse entered the chamber and continued for 5 min. These chambers, allowing four simultaneous recordings of individual mice and were fitted with infrared beams that could detect movement in the X, Y planes. The total distance travelled (cm) was recorded. Results are expressed as mean ± SEM. These were analysed by Student's paired t‐test or a one‐way ANOVA with Bonferroni post hoc test, using SigmaStat V3/Sigmaplot V9 or V11 software (Systat Ltd Hounslow, UK. Al‐Izki et al., 2012).

ABH mice [3] = experiment: Temperature testing (hypothermia); assay type: in vivo, mouse; conditions: for Temperature loss: 10 mg·kg^−1 i.v.
Method: These recordings were assessed 20 min following administration of compounds. Results are expressed as mean ± SEM, and were analysed by Student's t‐test or a one‐way ANOVA with Bonferroni post hoc test using Sigma/StatV3/Sigmpaplot V9 or V11 software (Pryce et al., 2014).

rat mesenteric artery = experiment: Methoxamine‐evoked contraction of rat mesenteric artery; assay type: cell-based; conditions: 50 nM blocker pretreatment
Method: Vessels were equilibrated and set to a basal tension of 2 to 2.5 mN. The integrity of the endothelium was assessed by pre‐contracting the vessel with 10 μM methoxamine (an α1‐adrenoceptor agonist), followed by relaxation with 10 μM carbachol (a muscarinic acetylcholine receptor agonist); vessels showing relaxations of greater than 90% were designated as endothelium‐intact. When the endothelium was not required, it was removed by rubbing the intima with a human hair; carbachol‐induced relaxation of less than 10% indicated successful removal. After the test for endothelial integrity, vessels were left for 30 min and then pre‐contracted with 10 μM methoxamine. This was followed by construction of a cumulative concentration–relaxation curve to VSN16R (10 nM–1 μM). […] Most experiments were performed in matched vessels; effects of blockers or endothelial removal were compared with the control responses obtained in separate vessels of the same rats. All relaxant responses are expressed as percentage relaxation of the tone induced by methoxamine. Values are given as mean ± SEM. Statistical comparisons of concentration‐dependent responses were made by two‐way ANOVA using Prism 4 (GraphPad Software, Inc, San Diego, CA, USA).

mouse vas deferens = experiment: Electrically‐evoked contraction of the mouse vas deferens; assay type: cell-based; conditions: Mus musculus; read-out: EC50, inhibition of electrically‐evoked contraction
Method: Vasa deferentia were obtained from outbred MF‐1 mice and mounted vertically in a 4 mL organ bath at an initial tension of 0.5 g. The baths contained Mg^2+‐free Krebs solution (NaCl 118.2 mM, KCl 4.75 mM, KH2PO4 1.19 mM, NaHCO3 25.0 mM, glucose 11.0 mM and CaCl2·6H2O 2.54 mM), which was kept at 35–36°C and bubbled with 95% O2 and 5% CO2. […] Contractions were monitored by a computer using a data recording and analysis system as described previously (Ross et al., 2001). After placement in an organ bath, each tissue was subjected to a stimulation‐free period of 10 min and then stimulated for 10 min. Tissues were then subjected to alternate periods of stimulation (5 min) and rest (10 min) until consistent twitch amplitudes were obtained. This equilibration procedure was followed by a stimulation‐free period of 25 min. Tissues were then stimulated for 5 min after which the first agonist addition was made and stimulation continued until the end of the experiment.

[4] = Plasma, brain and spinal cord levels in ABH mice with spastic EAE; assay type: in vivo, mouse; conditions: after 5 mg·kg^−1 p.o. VSN16R, ABH mice with spastic EAE
Method: The stability of compounds when subjected to hepatic and plasma degradation was assessed in vitro by Inpharmatica, Cambridge, UK. Compounds (1 μM) were incubated with either pooled mouse liver microsomes (0.1 mg protein mL^−1) or pooled mouse plasma at 37°C for 0, 5, 10, 20 and 40 min before termination with acetonitrile containing warfarin as an analytical internal standard. Samples were centrifuged, and the resultant supernatant analysed for parent compound. The mass responses at baseline were taken as the 100% reference values against which the disappearance of the compound was measured. The natural log of the % remaining values was used to generate linear plots of disappearance of the compounds. Half‐life values were calculated from the slope of these plots. Hepatocyte metabolism was assessed by Cyprotex, Macclesfield, and 10 μM VSN16R was incubated with primary mouse, rat, monkey (Macaque) and human hepatocytes for 1 h, and the presence of metabolites was assessed using liquid […] mass spectroscopy. The stability of VSN16R was assessed in vivo by Inpharmatica, Cyprotex and Charles Rivers, Cambridge. Blood (plasma) samples were obtained prior to and 5 min to 24 h after drug administration of 2–5 mg·kg^−1 i.v. or 5 mg·kg^−1 p.o. VSN16R into outbred mice and rats (n = 3 per time point). In addition, plasma, brain and spinal cord samples were obtained from ABH with spastic EAE. Immediately after blood collection, the brain and spinal cord were removed and then stored at −20°C prior to assay. Tissue samples were weighed, homogenized and centrifuged, and the lysates generated. Brain lysates and plasma were assayed by LC–MS methods by Inpharmatica/Charles Rivers, Cambridge, UK. This was also performed using a Waters Xevo TQ or API4000, AB Sciex mass spectrometer using spiked samples as standards. PK Solutions Software (Summit Research Services, Montrose, CO, USA), AB Sciex Analyst software combined with Thermo Fisher Scientific Watson LIMS processing and reporting software or WinNonLin pharmacokinetic or PK solutions 2.0 software (Summit Research Services, Montrose CO, USA) were used to produce PK parameters. Data are expressed as mean ± SEM. The detection limit of VSN16R was 2 ng·mL^−1 in plasma and brain and 14 ng·mL^−1 in spinal cords. The detection limit of VSN22R was 2 ng·mL^−1 in plasma and 0.1 ng·mL^−1 for VSN44R in plasma. Pharmacokinetics in toxicological samples in rats (n = 6 per group), dogs (n = 6 per group) and humans (n = 6 per group) were performed by Charles Rivers (Edinburgh, UK).

BKCa channel = biological target: T1, BKCa channel (Homo sapiens, UniProt Q12791+Q86W47); experiment: Single‐channel inside‐out patch clamp, EA.hy926 cells; assay type: cell-based; conditions: 3 μM, inner surface of membrane, 40 mV, 0.3 μM free Ca^2+
T1 construct: host or cells: EA.hy926 endothelial cells
T1 sequence (Q12791 whole entry): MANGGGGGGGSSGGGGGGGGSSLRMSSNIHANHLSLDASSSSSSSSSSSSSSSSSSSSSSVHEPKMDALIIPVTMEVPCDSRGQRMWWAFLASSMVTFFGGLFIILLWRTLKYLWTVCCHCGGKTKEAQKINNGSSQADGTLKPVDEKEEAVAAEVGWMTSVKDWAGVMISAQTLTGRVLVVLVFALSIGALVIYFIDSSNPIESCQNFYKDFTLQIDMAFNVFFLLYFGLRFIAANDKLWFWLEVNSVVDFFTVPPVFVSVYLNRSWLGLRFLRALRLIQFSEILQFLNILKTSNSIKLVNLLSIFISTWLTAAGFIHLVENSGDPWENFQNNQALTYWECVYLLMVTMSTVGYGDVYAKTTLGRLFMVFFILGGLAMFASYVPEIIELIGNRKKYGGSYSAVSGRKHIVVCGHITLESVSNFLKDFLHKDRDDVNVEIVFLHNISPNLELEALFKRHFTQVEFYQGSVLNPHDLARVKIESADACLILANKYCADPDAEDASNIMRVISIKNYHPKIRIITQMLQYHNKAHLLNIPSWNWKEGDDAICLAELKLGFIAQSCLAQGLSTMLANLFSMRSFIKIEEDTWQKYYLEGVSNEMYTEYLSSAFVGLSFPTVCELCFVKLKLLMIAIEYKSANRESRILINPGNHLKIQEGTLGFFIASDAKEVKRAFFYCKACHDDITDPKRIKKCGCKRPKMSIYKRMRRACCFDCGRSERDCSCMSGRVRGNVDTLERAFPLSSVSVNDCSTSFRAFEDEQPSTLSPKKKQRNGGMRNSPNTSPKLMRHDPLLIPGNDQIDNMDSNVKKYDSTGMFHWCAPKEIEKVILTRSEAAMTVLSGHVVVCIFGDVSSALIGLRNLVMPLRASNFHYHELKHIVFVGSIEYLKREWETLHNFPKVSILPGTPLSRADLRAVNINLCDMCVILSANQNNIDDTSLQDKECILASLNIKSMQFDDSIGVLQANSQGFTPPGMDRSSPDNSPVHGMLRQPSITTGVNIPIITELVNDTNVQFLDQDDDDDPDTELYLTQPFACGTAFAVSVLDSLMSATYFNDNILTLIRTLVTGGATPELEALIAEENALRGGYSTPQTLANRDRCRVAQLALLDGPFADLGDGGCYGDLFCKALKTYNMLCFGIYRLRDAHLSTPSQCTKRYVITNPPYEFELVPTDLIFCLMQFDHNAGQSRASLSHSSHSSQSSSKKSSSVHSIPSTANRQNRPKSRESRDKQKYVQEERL
T1 sequence (Q86W47 whole entry): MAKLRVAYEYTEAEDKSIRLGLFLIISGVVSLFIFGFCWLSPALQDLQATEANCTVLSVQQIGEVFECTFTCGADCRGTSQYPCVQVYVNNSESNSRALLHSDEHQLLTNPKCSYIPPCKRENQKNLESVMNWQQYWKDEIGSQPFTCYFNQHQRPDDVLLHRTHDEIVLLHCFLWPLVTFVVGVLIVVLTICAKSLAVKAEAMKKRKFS
Method: The human EA.hy926 endothelial cells (ATCC, Manassas, USA) were grown in DMEM containing 10% FCS and 1% HAT (5 mM hypoxanthine, 20 μM aminopterin and 0.8 mM thymidine) and were maintained in an incubator at 37°C in 5% CO2 atmosphere (Bondarenko et al., 2013). Human HNC‐2 neuronal cells were obtained from ATCC. For experiments, cells were plated on glass coverslips. Single‐channel recordings were obtained from excised inside‐out membrane patches in symmetrical solutions using the patch‐clamp technique. All patch‐clamp experiments were performed at room temperature with the use of a water hydraulic micromanipulator (WR‐6, Narishige, Japan). […] The pipettes were filled with 140 mM KCl, 10 mM HEPES, 1 mM MgCl2, 5 mM EGTA and […] CaCl2 buffered to pH 7.2 by adding KOH. Cells were super‐perfused with a bath solution containing 140 mM NaCl, 5 mM KCl, 1.2 mM MgCl2, 10 mM HEPES, 10 mM glucose and 2.4 mM CaCl2. Following gigaseal formation, bath solution was switched to the following: 140 mM KCl, 10 mM HEPES, 1 mM MgCl2, 5 mM EGTA and a designated free Ca^2+ concentration, which was adjusted by adding different amounts of CaCl2 buffered to pH 7.2. (Bondarenko et al., 2011; Bondarenko et al., 2013). Single‐channel activity was expressed as NPo, where N represents the number of functional ion channels in the membrane patch and Po represents the open channel probability determined from idealized traces (Bondarenko et al., 2011). NPo was obtained from ≥20 s of continuous recording under each experimental condition. The effect of VSN16R was estimated after 3 min of continuous exposure to VSN16R‐containing solution. Data were analysed by ANOVA, and statistical significance was evaluated using Scheffés post hoc test of the Prism 5 software for Windows (GraphPad Software).

[5] = i.p., 40 mg·kg^−1 BMS‐204352, 20 mg·kg^−1 NS‐1619, 10 mg·kg^−1 NS‐11021

For `FC(F)(F)c1cc(NC(=S)Nc2ccc(Br)cc2-c2nn[nH]n2)cc(C(F)(F)F)c1` [NS‐11021, reference compound], which Inhibition of spasticity [1, 5] is on record?
Its Inhibition of spasticity is “significantly inhibit spasticity”.

And the Sedation [1, 5]?
Its Sedation is “without causing sedation”.

What does the source list for `Cc1c(C(=O)c2cccc3ccccc23)c2cccc3c2n1[C@H](CN1CCOCC1)CO3` [R(+)WIN55‐212]?
Hypomotility in open field (ABH mice [2]; 1 mg·kg^−1 i.v., 30 min after administration): significant sedative effects; Hypothermia (ABH mice [3]; 1 mg·kg^−1 i.v., 20 min after administration): significant sedative effects

Which results are given for `CCCCCCC(C)(C)c1cc(O)c2c(c1)OC(C)(C)[C@@H]1CC=C(C(=O)O)C[C@@H]21` [CT3, 1′, 1′‐dimethylheptyl‐M8‐tetrahydrocannabinol‐11‐oic acid]?
Temperature loss (ABH mice [3]; 20 min, spastic animals): 2.3 ± 0.4 °C; Temperature loss (ABH mice [3]; healthy mice): 0.0 ± 0.1 °C

Which “Effect of the blocker on VSN16R vasorelaxation” value (rat mesenteric artery) does the source give for “Apamin: KCa2.2/2.3 (KCNN2/KCNN3) channel antagonist (CNCKAPETALCARRCQQHG)” here?
The value was “small inhibitory effect”.

For `N#Cc1cc2[nH]c(=O)c(=O)[nH]c2cc1[N+](=O)[O-]` [CNQX, reference compound], which “Inhibitory response on repeated dosing” value ([1]; repeated 25 mg·kg^−1 s.c.) is on record?
Its value is “inhibitory responses that diminished over time”.

What does the source list for `CC(C)(O)[C@H]1O[C@H]2CC[C@@]3(C)[C@@](O)(CC[C@H]4Cc5c([nH]c6ccccc56)[C@@]43C)C2=CC1=O` [paxilline, reference compound]?
Effect on baseline level of spasticity ([1]; 1 mg·kg^−1 i.p.): did not influence the baseline level of spasticity; Effect of pretreatment on the action of VSN16R ([1]; 1 mg·kg^−1 i.p. before 5 mg·kg^−1 p.o. VSN16R): completely inhibit the action of VSN16R

With `COc1ccc(Cl)cc1[C@]1(F)C(=O)Nc2cc(C(F)(F)F)ccc21` [BMS‐204352, reference compound] as the compound, how does the Inhibition of spasticity [1, 5] read?
Its Inhibition of spasticity is “significantly inhibit spasticity”.

What about the Sedation [1, 5] of the same compound?
The Sedation was “without causing sedation”.

What does the source list for `O=c1[nH]c2cc(C(F)(F)F)ccc2n1-c1cc(C(F)(F)F)ccc1O` [NS‐1619, reference compound]?
Inhibition of spasticity [1, 5]: significantly inhibit spasticity; Sedation [1, 5]: without causing sedation

Which EC50 (mouse vas deferens) does the source give for `C[C@@H](NC(=O)c1cccc(/C=C\CCCC(=O)N(C)C)c1)C(=O)O` [VSN44R, (Z)‐(3‐(6‐(dimethylamino)‐6‐oxohex‐1‐en‐1‐yl)benzoyl)‐D‐alanine] here?
The EC50 was 1 nM.

And the “Plasma level of the named species” value [4]?
Its value is 2.1 ± 0.3 ng/mL.

What about the “Single BKCa channel activity” value (BKCa channel) of the same compound?
The value was “facilitated single BKCa channel activity”.

What about the Inhibition of spasticity ([1]; 5 mg·kg^−1 i.v.) of the same compound?
Its Inhibition of spasticity is “could inhibit the spasticity”.

With `NCC(CC(=O)O)c1ccc(Cl)cc1` (stereo not shown) [baclofen, reference compound] as the compound, how does the “Sedation (hypomotility, hypothermia)” value (ABH mice [2]; 5 mg·kg^−1 i.v.) read?
Its value is “significant sedation”.

And the Inhibition of spasticity ([1]; 5 mg·kg^−1 i.v.)?
Its Inhibition of spasticity is “comparable inhibition of spasticity”.

And the “Inhibitory response on repeated dosing” value ([1]; repeated 5 mg·kg^−1 p.o.)?
The value was “inhibitory responses that diminished over time”.

With charybdotoxin as the compound, how does the “Effect of the blocker on VSN16R vasorelaxation” value (rat mesenteric artery) read?
The value was “significantly inhibited”.
